Where “and” joins values, the source holds several entries; their conditions need not be identical. Equal entries are not always repeated.
Legend:
Test in all cases: LanthaScreen Eu Kinase Binding Assay, panel of 486 biochemical kinase assays
various kinases [1] = biological target: various kinases (Homo sapiens, UniProt P00519, Q252H); details: ABL1 Q252H
various kinases [2] = biological target: various kinases (Homo sapiens, UniProt P07949, G691S); details: kinase RET G691S; LanthaScreen Binding
various kinases [3] = biological target: various kinases (Homo sapiens, UniProt P10721, A829P); details: KIT A829P
various kinases [4] = biological target: various kinases (Homo sapiens, UniProt P10721, D816H); details: KIT D816H
various kinases [5] = biological target: various kinases (Homo sapiens, UniProt P10721, T670E); details: KIT T670E
various kinases [6] = biological target: various kinases (Homo sapiens, UniProt P22607, G697C); details: FGFR3 G697C
various kinases [7] = biological target: various kinases (Homo sapiens, UniProt P22694); details: kinase PRKACB (PRKAC beta); LanthaScreen Binding
various kinases [8] = biological target: various kinases (Homo sapiens, UniProt P30530, R499C); details: AXL R499C
various kinases [9] = biological target: various kinases (Homo sapiens, UniProt P37173); details: kinase TGFBR2; LanthaScreen Binding
various kinases [10] = biological target: various kinases (Homo sapiens, UniProt P53671); details: LIMK2
various kinases [11] = biological target: various kinases (Homo sapiens, UniProt P57059); details: kinase SIK1; LanthaScreen Binding
various kinases [12] = biological target: various kinases (Homo sapiens, UniProt Q07912); details: kinase TNK2 (ACK); LanthaScreen Binding
various kinases [13] = biological target: various kinases (Homo sapiens, UniProt Q13873); details: BMPR2
various kinases [14] = biological target: various kinases (Homo sapiens, UniProt Q15746); details: MYLK (MLCK)
various kinases [15] = biological target: T1, various kinases (Homo sapiens, UniProt Q6PHR2); details: kinase ULK3; LanthaScreen Binding
T1 sequence (Q6PHR2 1-472): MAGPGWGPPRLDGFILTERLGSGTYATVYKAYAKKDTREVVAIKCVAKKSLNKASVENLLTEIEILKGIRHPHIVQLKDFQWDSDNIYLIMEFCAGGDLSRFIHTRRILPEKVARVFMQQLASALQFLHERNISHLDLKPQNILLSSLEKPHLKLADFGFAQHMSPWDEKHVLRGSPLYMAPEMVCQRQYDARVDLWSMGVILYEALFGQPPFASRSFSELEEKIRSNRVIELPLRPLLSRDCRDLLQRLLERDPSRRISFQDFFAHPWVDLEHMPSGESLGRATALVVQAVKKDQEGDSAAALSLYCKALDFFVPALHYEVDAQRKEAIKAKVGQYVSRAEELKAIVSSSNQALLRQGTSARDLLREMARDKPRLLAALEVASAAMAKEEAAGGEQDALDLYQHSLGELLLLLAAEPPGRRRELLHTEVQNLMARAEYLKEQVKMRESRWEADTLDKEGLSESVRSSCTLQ

various kinases [16] = biological target: various kinases (Homo sapiens, UniProt Q92630); details: DYRK2
various kinases [17] = biological target: various kinases (Homo sapiens, UniProt Q96GX5); details: MASTL
various kinases [18] = biological target: various kinases (Homo sapiens, UniProt Q96RR4); details: CAMKK2 (CaMKK beta)
various kinases [19] = biological target: various kinases (Homo sapiens, UniProt Q99558); details: MAP3K14 (NIK)
various kinases [20] = biological target: various kinases (Homo sapiens, UniProt Q9BYP7); details: kinase WNK3; LanthaScreen Binding
various kinases [21] = biological target: various kinases (Homo sapiens, UniProt Q9Y616); details: IRAK3

Chain of various kinases (Homo sapiens, UniProt Q07912) (Q07912 whole entry): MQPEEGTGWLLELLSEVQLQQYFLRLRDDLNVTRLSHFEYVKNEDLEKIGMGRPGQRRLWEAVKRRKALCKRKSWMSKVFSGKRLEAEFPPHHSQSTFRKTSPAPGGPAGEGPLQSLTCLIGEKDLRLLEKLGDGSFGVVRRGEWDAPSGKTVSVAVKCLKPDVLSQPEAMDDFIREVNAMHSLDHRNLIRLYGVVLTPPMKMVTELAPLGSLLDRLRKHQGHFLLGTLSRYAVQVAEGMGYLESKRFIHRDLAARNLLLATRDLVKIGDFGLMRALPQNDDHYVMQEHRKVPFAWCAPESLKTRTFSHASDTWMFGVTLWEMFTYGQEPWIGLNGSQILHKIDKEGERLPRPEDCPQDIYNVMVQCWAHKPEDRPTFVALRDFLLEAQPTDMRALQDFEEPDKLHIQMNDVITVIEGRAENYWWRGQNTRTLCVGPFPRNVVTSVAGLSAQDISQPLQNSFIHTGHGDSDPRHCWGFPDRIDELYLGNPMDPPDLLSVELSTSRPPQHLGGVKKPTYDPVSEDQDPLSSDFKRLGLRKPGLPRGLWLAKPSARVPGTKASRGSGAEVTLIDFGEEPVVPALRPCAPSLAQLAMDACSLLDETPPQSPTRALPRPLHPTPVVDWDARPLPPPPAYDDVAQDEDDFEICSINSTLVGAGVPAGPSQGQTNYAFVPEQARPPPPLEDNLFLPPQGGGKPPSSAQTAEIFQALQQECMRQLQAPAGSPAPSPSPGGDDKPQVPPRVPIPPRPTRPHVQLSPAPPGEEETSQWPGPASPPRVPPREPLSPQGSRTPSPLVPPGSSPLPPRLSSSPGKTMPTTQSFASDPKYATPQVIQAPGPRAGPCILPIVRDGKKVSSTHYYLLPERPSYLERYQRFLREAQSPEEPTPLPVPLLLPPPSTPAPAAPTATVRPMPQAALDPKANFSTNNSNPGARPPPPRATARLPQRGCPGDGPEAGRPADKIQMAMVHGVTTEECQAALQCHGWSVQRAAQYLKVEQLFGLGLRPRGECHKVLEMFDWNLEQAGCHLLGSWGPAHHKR
Chain of various kinases (Homo sapiens, UniProt Q9BYP7) (Q9BYP7 whole entry): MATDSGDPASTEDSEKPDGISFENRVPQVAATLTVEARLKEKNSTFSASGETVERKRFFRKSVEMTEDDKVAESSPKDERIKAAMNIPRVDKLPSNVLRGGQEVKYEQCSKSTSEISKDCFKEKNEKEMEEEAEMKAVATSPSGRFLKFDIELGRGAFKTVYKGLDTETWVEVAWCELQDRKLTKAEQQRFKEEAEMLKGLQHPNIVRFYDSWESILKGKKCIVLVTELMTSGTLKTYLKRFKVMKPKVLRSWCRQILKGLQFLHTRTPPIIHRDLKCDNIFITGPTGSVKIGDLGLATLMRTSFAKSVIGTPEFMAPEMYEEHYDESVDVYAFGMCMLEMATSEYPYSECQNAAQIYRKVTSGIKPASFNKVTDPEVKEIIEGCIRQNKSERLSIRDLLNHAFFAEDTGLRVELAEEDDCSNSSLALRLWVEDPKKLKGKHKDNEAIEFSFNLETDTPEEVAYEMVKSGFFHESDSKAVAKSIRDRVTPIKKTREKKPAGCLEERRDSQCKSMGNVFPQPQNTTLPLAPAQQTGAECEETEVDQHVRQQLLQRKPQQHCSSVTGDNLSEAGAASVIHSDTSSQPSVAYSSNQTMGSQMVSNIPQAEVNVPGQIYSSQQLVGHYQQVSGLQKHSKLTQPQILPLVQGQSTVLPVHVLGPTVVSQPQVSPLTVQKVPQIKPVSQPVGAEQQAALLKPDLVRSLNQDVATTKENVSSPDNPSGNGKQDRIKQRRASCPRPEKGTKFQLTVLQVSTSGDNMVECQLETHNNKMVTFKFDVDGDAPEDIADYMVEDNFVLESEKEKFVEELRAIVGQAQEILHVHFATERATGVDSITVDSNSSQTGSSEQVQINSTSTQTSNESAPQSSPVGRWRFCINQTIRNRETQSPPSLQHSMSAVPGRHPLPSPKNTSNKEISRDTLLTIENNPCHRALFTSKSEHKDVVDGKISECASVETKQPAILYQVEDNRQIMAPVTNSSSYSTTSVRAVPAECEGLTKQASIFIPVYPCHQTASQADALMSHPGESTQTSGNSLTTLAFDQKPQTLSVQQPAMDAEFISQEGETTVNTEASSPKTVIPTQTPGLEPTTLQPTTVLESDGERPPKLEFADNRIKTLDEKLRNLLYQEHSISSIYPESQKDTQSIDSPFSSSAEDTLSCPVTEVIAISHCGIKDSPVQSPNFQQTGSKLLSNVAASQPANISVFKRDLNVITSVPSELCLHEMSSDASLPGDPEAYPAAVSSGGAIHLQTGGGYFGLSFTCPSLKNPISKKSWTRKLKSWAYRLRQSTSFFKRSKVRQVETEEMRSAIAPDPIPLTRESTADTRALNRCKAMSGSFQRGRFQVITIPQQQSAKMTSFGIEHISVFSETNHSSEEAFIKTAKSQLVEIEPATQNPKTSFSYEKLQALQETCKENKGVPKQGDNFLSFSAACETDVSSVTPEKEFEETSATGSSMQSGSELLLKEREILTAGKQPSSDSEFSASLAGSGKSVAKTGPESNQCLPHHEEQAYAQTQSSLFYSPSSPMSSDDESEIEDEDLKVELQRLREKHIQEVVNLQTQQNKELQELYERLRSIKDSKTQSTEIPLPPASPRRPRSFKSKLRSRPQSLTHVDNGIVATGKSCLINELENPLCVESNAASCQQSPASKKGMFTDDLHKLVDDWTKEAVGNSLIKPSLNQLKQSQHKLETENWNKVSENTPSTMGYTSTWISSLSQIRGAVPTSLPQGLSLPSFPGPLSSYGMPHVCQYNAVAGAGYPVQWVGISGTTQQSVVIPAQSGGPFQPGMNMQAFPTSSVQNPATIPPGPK
Chain of various kinases (Homo sapiens, UniProt P07949, G691S) (P07949 29-1114 G691S): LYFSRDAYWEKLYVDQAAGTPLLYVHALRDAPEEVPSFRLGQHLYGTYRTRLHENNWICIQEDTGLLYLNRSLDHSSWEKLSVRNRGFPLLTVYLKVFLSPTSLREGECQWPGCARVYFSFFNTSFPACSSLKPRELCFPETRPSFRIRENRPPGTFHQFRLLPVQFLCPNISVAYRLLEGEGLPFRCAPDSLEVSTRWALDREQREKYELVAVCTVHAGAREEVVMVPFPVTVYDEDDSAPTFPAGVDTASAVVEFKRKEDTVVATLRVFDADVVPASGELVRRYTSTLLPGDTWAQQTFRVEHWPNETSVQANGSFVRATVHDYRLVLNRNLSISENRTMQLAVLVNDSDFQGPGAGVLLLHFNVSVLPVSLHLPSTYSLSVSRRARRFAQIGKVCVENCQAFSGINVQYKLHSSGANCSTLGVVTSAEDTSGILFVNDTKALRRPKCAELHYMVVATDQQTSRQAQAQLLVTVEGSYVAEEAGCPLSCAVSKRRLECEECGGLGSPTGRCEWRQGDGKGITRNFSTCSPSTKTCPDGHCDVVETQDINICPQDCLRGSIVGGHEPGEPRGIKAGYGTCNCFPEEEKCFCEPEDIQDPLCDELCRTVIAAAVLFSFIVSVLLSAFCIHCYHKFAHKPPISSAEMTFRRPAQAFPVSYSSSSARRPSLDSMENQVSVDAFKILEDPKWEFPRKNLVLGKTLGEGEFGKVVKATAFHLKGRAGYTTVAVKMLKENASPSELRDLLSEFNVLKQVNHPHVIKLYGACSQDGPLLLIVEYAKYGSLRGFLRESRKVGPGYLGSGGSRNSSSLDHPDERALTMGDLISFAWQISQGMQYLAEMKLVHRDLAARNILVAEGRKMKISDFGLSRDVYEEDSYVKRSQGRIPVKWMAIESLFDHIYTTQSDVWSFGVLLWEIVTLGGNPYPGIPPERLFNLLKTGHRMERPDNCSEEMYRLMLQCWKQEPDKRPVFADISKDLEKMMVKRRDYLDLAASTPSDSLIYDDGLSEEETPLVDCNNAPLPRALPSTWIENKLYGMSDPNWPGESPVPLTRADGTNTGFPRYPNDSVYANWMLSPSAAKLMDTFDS
Chain of various kinases (Homo sapiens, UniProt P57059) (P57059 whole entry): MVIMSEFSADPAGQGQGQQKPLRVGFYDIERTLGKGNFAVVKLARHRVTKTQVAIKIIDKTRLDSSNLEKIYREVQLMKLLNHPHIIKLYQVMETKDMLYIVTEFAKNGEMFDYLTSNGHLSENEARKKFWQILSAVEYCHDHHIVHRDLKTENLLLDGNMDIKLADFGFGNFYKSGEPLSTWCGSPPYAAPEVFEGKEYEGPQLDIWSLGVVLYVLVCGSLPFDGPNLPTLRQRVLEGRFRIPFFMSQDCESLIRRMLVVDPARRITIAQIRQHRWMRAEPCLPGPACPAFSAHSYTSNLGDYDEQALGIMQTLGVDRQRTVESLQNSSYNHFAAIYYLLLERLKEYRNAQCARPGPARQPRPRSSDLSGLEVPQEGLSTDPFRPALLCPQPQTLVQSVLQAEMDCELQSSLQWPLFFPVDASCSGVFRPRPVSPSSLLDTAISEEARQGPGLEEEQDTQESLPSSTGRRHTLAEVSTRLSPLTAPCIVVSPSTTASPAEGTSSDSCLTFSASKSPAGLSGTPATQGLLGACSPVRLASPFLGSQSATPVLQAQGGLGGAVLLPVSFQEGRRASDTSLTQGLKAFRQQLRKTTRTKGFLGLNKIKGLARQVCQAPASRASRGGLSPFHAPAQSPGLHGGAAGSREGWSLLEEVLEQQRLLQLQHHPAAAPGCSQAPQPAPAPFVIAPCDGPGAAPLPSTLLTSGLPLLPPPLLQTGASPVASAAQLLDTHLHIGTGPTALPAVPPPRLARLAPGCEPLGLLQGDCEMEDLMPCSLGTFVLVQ

Structure (SMILES): COc1ccc2c(c1)[C@]1(C[C@H]1c1ccc3c(/C=C/c4ccc(CN5C[C@@H](C)O[C@@H](C)C5)cc4)n[nH]c3c1)C(=O)N2 [CFI-400945]
- % Inhibition (various kinases [1]): 72%
- % Inhibition Average (various kinases [2]): -1%
- % Inhibition Duplicate #1 (various kinases [2]): -11%
- % Inhibition Duplicate #2 (various kinases [2]): 9%
- % Inhibition (various kinases [3]): 0% and 7%
- % Inhibition (various kinases [4]): 21% and 20%
- % Inhibition (various kinases [5]): 9% and 6%
- % Inhibition (various kinases [6]): 30% and 40%
- % Inhibition Average (various kinases [7]): -4%
- % Inhibition Duplicate #1 (various kinases [7]): -6%
- % Inhibition Duplicate #2 (various kinases [7]): -3%
- % Inhibition (various kinases [8]): 11% and 12%
- % Inhibition Average (various kinases [9]): 1%
- % Inhibition Duplicate #1 (various kinases [9]): -2%
- % Inhibition Duplicate #2 (various kinases [9]): 5%
- % Inhibition (various kinases [10]): 4% and 0%
- % Inhibition Average (various kinases [11]): 6%
- % Inhibition Duplicate #1 (various kinases [11]): 5%
- % Inhibition Duplicate #2 (various kinases [11]): 6%
- % Inhibition Average (various kinases [12]): 9%
- % Inhibition Duplicate #1 (various kinases [12]): 11%
- % Inhibition Duplicate #2 (various kinases [12]): 8%
- % Inhibition (various kinases [13]): 0% and 2%
- % Inhibition (various kinases [14]): 0% and -2%
- % Inhibition Average (various kinases [15]): 0%
- % Inhibition Duplicate #1 (various kinases [15]): -4%
- % Inhibition Duplicate #2 (various kinases [15]): 3%
- % Inhibition (various kinases [16]): 1% and 10%
- % Inhibition (various kinases [17]): 16% and 15%
- % Inhibition (various kinases [18]): 33% and 23%
- % Inhibition (various kinases [19]): 0% and 1%
- % Inhibition Average (various kinases [20]): -2%
- % Inhibition Duplicate #1 (various kinases [20]): -2%
- % Inhibition Duplicate #2 (various kinases [20]): -1%
- % Inhibition (various kinases [21]): 29%
